Results reported in patent US20230312587A1, “PTERIDINONE COMPOUNDS AND USES THEREOF” (Vertex Pharmaceutical Incorporated, priority 2018, published 2023).
pIC50: −log10 of the molar value.

What follows are molecules tested on Hek293 WFS1 over-expressor (assay: In vitro cell viability (CellTiter-Glo), Hek293 WFS1 over-expressor). Conditions: Hek293 WFS1 over-expressing cells; read-out: Hek293 WFS1 viability.
Format: cell-based
Description: WFS1 cDNA is amplified from clone RC202901 (Origene Technologies) with primers 5′-TCCGCGGCCCCAAGCTTATCGCCATGGACTCCAACACTGC-3′ (SEQ ID NO: 1), 5′-GATGGGCCCAGATCTCGAGTCAGGCCGCCGACAGGAATG-3′ (SEQ ID NO: 2) and cloned into a retroviral mammalian expression vector pCLPCX using HD Infusion (CLONTECH) at Hind3-Xhol sites using standard procedures. The resulting clone is identified as pCLPCX_WFS1.
HEK293 (ATCC, catalog #CRL-1573) cells are plated in 10 cm dishes (Corning, product #430167) into 10 mL of complete DMEM cell culture media [DMEM (Life Technologies, product #11960-051) media supplemented with 10% FBS (Hyclone, catalog #SH30071.03), antimycotic/antibiotic (Life Technologies, product #15240-062), and Glutamax (Life Technologies, product #35050-061)] at 3×10^6 cells per dish. Cells are allowed to attach and grow overnight at 37° C. in humidified 5% CO2. Cells are co-transfected with pVSV-G, pCMV-Gag/Pol and pCLPCX_WFS1 using Fugene 6 (Promega, catalog #E2691) according to manufacturer's protocol. Separately, cells are co-transfected with pVSV-G, pCMV-Gag/Pol and pCLPCX to produce control retrovirus. Cell culture media containing retrovirus (viral supernatant) is collected at 48 and 72 hours following transfection, filtered through a 0.4 uM filter, and stored at −80° C.
HEK293 cells are plated in 6 well plates (Corning, product #3516) in 2 mL of complete DMEM cell culture media at 1×10^5 cells well and allowed to attach and grow overnight at 37° C. in humidified 5% CO2. The following day, the media is replaced with viral supernatant to which 10 ug/ml of Polybrene® (Santa Cruz Biotech, catalog #sc-134220) is added. Viral supernatant is replaced 24 hours later with complete DMEM media. Transduced cells are selected in complete DMEM cell culture media containing 1 microgram/mL of puromycin (Life Technologies, catalog #A1113803).
HEK293 cells containing empty pCLPCx vector (HEK293 empty), HEK293 cells stably over-expression WFS1 (HEK293 WFS1), HepG2, and HepG2 cells where WFS1 was depleted via CRISPR/Cas9 (HepG2 WFS1 KO) cells were plated into 96-well black plates (Corning, product #3904) in 100 microliters of complete DMEM cell culture media [DMEM (Life Technologies, product #11960-051) media supplemented with 10% FBS (Hyclone, catalog #SH30071.03), antimycotic/antibiotic (Life Technologies, product #15240-062), and Glutamax (Life Technologies, product #35050-061)] at 1,000 (HEK293) or 5,000 (HepG2) cells per well. Cells were allowed to attach and grow overnight, after which compounds are added at various concentrations. Cell viability was assessed 96 hrs after compound addition with CellTiter-Glo reagent (Promega, catalog #G7570) according to manufacturer's protocol and measurement on a Pherastar luminescence plate reader (BMG Labtech).
The IC50s for the viability of both the Hek293 empty vector and WFS1 over-expressing cells are summarized in Table 47: A<0.06 μM; 0.06 μM≤B<0.6 μM; 0.6 μM≤C<3.0 μM; D≥3.0 μM.

Molecule | pIC50
(7S)-4,7,8-trimethyl-2-((trans-3-(3,4-difluorophenoxy)cyclobutyl)amino)-7,8-dihydropteridin-6(5H)-one [Compound 251] | 6.22 to 7.22

Same assay, conditions: Homo sapiens, HEK293, Hek293 WFS1 over-expressing cells; read-out: Hek293 WFS1 viability

Molecule | pIC50
Cc1nc(NCc2cnn([C@@H]3CCN(c4ccc(F)cc4)C3)c2)nc2c1NC(=O)[C@H](C)N2C [Compound 170, (7S)-2-(((1-((R)-1-(4-fluorophenyl)pyrrolidin-3-yl)-1H-pyrazol-4-yl)methyl)amino)-4,7,8-trimethyl-7,8-dihydropteridin-6(5H)-one] | > 7.22
CCOc1ccc(CCn2cc(CNc3ncc4c(n3)N(C)[C@@H](C)C(=O)N4)cn2)cc1 [Compound 121, (7S)-2-(((1-(4-ethoxyphenethyl)-1H-pyrazol-4-yl)methyl)amino)-7,8-dimethyl-7,8-dihydropteridin-6(5H)-one] | 5.52 to 6.22
Cc1ccc(Cn2cc(CNc3nc(C)c4c(n3)N(C)[C@@H](C)C(=O)N4)cn2)cn1 [Compound 173, (7S)-4,7,8-trimethyl-2-(((1-((6-methylpyridin-3-yl)methyl)-1H-pyrazol-4-yl)methyl)amino)-7,8-dihydropteridin-6(5H)-one] | 6.22 to 7.22
Cc1nc(N[C@H]2C[C@H](COc3cc(F)c(F)c(F)c3)C2)nc2c1NC(=O)[C@H](C)N2C [Compound 258, (7S)-4,7,8-trimethyl-2-((trans-3-((3,4,5-trifluorophenoxy)methyl)-cyclobutyl)amino)-7,8-dihydropteridin-6(5H)-one] | 6.22 to 7.22
Cc1nc(NCc2cnn(C[C@H](C)c3ccc(F)cc3)c2)nc2c1NC(=O)[C@H](C)N2C [Compound 96, (7S)-2-(((1-((R)-2-(4-fluorophenyl)propyl)-1H-pyrazol-4-yl)methyl)amino)-4,7,8-trimethyl-7,8-dihydropteridin-6(5H)-one] | 6.22 to 7.22
Cc1nc(NCc2cnn(Cc3cnc(Cl)c(F)c3)c2)nc2c1NC(=O)[C@H](C(C)C)N2C [Compound 424, (7S)-2-(((1-((6-chloro-5-fluoropyridin-3-yl)methyl)-1H-pyrazol-4-yl)methyl)amino)-7-isopropyl-4,8-dimethyl-7,8-dihydropteridin-6(5H)-one] | > 7.22
Cc1nc(NCc2cn(Cc3ccc(C(F)(F)F)nc3)cn2)nc2c1NC(=O)[C@H](C)N2C [Compound 428, (S)-4,7,8-trimethyl-2-(((1-((6-(trifluoromethyl)pyridin-3-yl)methyl)-1H-imidazol-4-yl)methyl)amino)-7,8-dihydropteridin-6(5H)-one] | ≤ 5.52
Cc1nc(NCc2cnn(CC(C)(O)c3ccc(F)cc3)c2)nc2c1NC(=O)[C@H](C)N2C (stereo partly drawn) [Compound 128, (7S)-2-(((1-(2-(4-fluorophenyl)-2-hydroxypropyl)-1H-pyrazol-4-yl)methyl)amino)-4,7,8-trimethyl-7,8-dihydropteridin-6(5H)-one] | 5.52 to 6.22
Cc1nc(NCc2cnn(CC3CCC3)c2)nc2c1N(C)C(=O)[C@H](C)N2C [Compound 7, (7S)-2-(((1-(cyclobutylmethyl)-1H-pyrazol-4-yl)methyl)amino)-4,5,7,8-tetramethyl-7,8-dihydropteridin-6(5H)-one] | 6.22 to 7.22
Cc1nc(NCc2cnn([C@H]3CCN(C4CCC(F)(F)CC4)C3)c2)nc2c1NC(=O)[C@H](C)N2C [Compound 142, (7S)-2-(((1-((S)-1-(4,4-difluorocyclohexyl)pyrrolidin-3-yl)-1H-pyrazol-4-yl)methyl)amino)-4,7,8-trimethyl-7,8-dihydropteridin-6(5H)-one] | 6.22 to 7.22
Cc1nc(N[C@H]2C[C@H](Oc3ccc(F)nc3)C2)nc2c1NC(=O)[C@H](C)N2C [Compound 357, (7S)-2-((trans-3-((6-fluoropyridin-3-yl)oxy)cyclobutyl)amino)-4,7,8-trimethyl-7,8-dihydropteridin-6(5H)-one] | 6.22 to 7.22
Cc1nc(N[C@H]2CC[C@H](n3ccc(C(F)(F)F)n3)C2)nc2c1NC(=O)[C@H](C)N2C (single isomer, unassigned) [Compound 310] | 6.22 to 7.22
Cc1nc(NCc2cnn(C3CCN(C(=O)c4ccc(F)cc4)CC3)c2)nc2c1NC(=O)[C@H](C)N2C [Compound 125, (7S)-2-(((1-(1-(4-Fluorobenzoyl)piperidin-4-yl)-1H-pyrazol-4-yl)methyl)amino)-4,7,8-trimethyl-7,8-dihydropteridin-6(5H)-one] | 5.52 to 6.22
Cc1nc(N(C)Cc2cnn(Cc3ccc(C(F)(F)F)nc3)c2)nc2c1NC(=O)[C@H](C)N2C [Compound 403, (7S)-4,7,8-trimethyl-2-(methyl((1-((6-(trifluoromethyl)pyridin-3-yl)methyl)-1H-pyrazol-4-yl)methyl)amino)-7,8-dihydropteridin-6(5H)-one] | ≤ 5.52
Cc1nc(NCc2cnn(CCc3ccc(F)cc3)c2)nc2c1N(C)C(=O)[C@H](C)N2C [Compound 8, (7S)-2-(((1-(4-fluorophenethyl)-1H-pyrazol-4-yl)methyl)amino)-4,5,7,8-tetramethyl-7,8-dihydropteridin-6(5H)-one] | ≤ 5.52
CC[C@H]1C(=O)Nc2cnc(NCc3cnn(Cc4ccc(C(F)(F)F)nc4)c3)nc2N1C [Compound 427, (7S)-7-ethyl-8-methyl-2-(((1-((6-(trifluoromethyl)pyridin-3-yl)methyl)-1H-pyrazol-4-yl)methyl)amino)-7,8-dihydropteridin-6(5H)-one] | 6.22 to 7.22
Cc1nc(N[C@H]2C[C@H](Sc3cc(F)c(F)c(F)c3)C2)nc2c1NC(=O)[C@H](C)N2C [Compound 329, (7S)-4,7,8-trimethyl-2-((trans-3-((3,4,5-trifluorophenyl)thio)-cyclobutyl)amino)-7,8-dihydropteridin-6(5H)-one] | > 7.22
CN1C(=O)C(C)(C)N(C)c2nc(NCc3cnn(Cc4cccnc4C(F)(F)F)c3)ncc21 [Compound 237, 5,7,7,8-Tetramethyl-2-(((1-((2-(trifluoromethyl)pyridin-3-yl)methyl)-1H-pyrazol-4-yl)methyl)amino)-7,8-dihydropteridin-6(5H)-one] | 6.22 to 7.22
Cc1nc(N[C@H]2C[C@H](Sc3ccc(F)cc3)C2)nc2c1N(C)C(=O)[C@H](C)N2C [Compound 307, (7S)-2-((trans-3-((4-fluorophenyl)thio)cyclobutyl)amino)-4,5,7,8-tetramethyl-7,8-dihydropteridin-6(5H)-one] | 6.22 to 7.22
Cc1nc(N[C@H]2CC[C@H](Oc3ccc(C(F)(F)F)nc3)C2)nc2c1NC(=O)[C@H](C)N2C (single isomer, unassigned) [Compound 376] | 6.22 to 7.22
Cc1nc(NCc2cnn(CCC3CCOCC3)c2)nc2c1NC(=O)[C@H](C)N2C [Compound 115, (7S)-4,7,8-trimethyl-2-(((1-(2-(tetrahydro-2H-pyran-4-yl)ethyl)-1H-pyrazol-4-yl)methyl)amino)-7,8-dihydropteridin-6(5H)-one] | 5.52 to 6.22
Cc1nc(NCc2cnn(CCc3ccc(F)cc3)c2)nc2c1NC(=O)[C@H](C)N2C [Compound 6, (7S)-2-(((1-(4-fluorophenethyl)-1H-pyrazol-4-yl)methyl)amino)-4,7,8-trimethyl-7,8-dihydropteridin-6(5H)-one] | 6.22 to 7.22
Cc1nc(NCc2cnn(Cc3ccc(F)cc3)c2)nc2c1NC(=O)C1(CC1)N2 [Compound 222, 2′-(((1-(4-fluorobenzyl)-1H-pyrazol-4-yl)methyl)amino)-4′-methyl-5′,8′-dihydro-6′H-spiro[cyclopropane-1,7′-pteridin]-6′-one] | ≤ 5.52
Cc1nc(N[C@H]2C[C@@H](Sc3ccc(F)cc3)C2)nc2c1N(C)C(=O)[C@H](C)N2C [Compound 305, (7S)-2-((cis-3-((4-fluorophenyl)thio)cyclobutyl)amino)-4,5,7,8-tetramethyl-7,8-dihydropteridin-6(5H)-one] | 6.22 to 7.22
